The target in assay [1] is KRAS-WT (Homo sapiens, UniProt P01116). As to the kind of experiment: SOS-catalyzed nucleotide exchange assay (Procedure A, TR-FRET), KRAS-WT. Type of assay: biochemical. The procedure, abridged:
(§1)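 Compounds (10-point, 3-fold) were preincubated 60 min at room temperature with a biotinylated RAS/Bodipy-GDP/Tb-streptavidin TR-FRET complex. Exchange was started with human SOS plus 3 mM GTP. RAS/SOS: G12C 3/40 nM, WT 1/40 nM, NRAS 1.25/40 nM (60 min); G12V 1.25/160 nM (90 min). The 520/495 ratio was fit four-parameter.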
For orientation: TR-FRET usually uses a lanthanide donor and a delayed reading to cut background.

Assay [2] has as its system AsPC-1 cells. As to the kind of experiment: Cellular phospho-ERK assay, AsPC-1 cells (homozygous KRAS-G12D). Type of assay: cell-based. Conditions: Homo sapiens, read-out: AsPC1 pERK IC50. The procedure, abridged: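 p-ERK/total ERK ratio, measured by AlphaLISA SureFire Ultra multiplex in lysates, was fitted to a 4-parameter logistic model for IC50. Compound exposure was 2 h at 37° C, 5% CO2, 10-point 1:3 dilutions from 30 μM final, on cells plated the previous night.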

The target of assay [3] is KRAS-G12D (Homo sapiens, UniProt P01116, G12D). In words: SOS-catalyzed nucleotide exchange assay (Procedure A, TR-FRET), KRAS-G12D. The assay is classed as biochemical. The procedure, abridged:
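Signal ratio (520/495 nm, excitation 340 nm) reports Bodipy-GDP retention on biotinylated RAS after SOS-catalyzed exchange with 3 mM GTP. SOS was 40 nM, except 160 nM for G12V. Room-temperature exchange lasted 60 min (90 min for G12V), following a 60 min compound preincubation.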

For assay [4], the target named is KRAS-G12V (Homo sapiens, UniProt P01116, G12V). In words: SOS-catalyzed nucleotide exchange assay (Procedure A, TR-FRET), KRAS-G12V. The assay is classed as biochemical. In short, it runs like this: as §1
[5] abbreviates: nucleotide exchange, read-out: KRAS WT GNE IC50.
[6] abbreviates: ASPC1, 2 h, 2 hours compound incubation.
Setting [7] is: nucleotide exchange, read-out: KRAS G12D GNE IC50.
Setting [8] is: nucleotide exchange, read-out: KRAS G12V GNE IC50.

Molecules are shown by their SMILES. Where two headings read alike, the source gives them in different places.

Chain of KRAS-WT (P01116 with tags, fused parts or gaps isoform P01116-2): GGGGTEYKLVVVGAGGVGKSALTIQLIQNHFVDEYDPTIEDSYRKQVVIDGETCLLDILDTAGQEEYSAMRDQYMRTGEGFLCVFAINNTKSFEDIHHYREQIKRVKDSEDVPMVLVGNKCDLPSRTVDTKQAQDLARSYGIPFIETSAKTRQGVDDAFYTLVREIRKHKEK
Chain of KRAS-G12V (P01116 with tags, fused parts or gaps isoform P01116-2 G12V): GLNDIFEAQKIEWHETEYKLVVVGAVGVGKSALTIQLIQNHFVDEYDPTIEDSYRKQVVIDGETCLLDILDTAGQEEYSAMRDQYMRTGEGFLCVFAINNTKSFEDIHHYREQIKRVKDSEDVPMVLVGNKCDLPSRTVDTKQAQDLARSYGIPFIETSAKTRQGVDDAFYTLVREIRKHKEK
Chain of KRAS-G12D (P01116 with tags, fused parts or gaps isoform P01116-2 G12D): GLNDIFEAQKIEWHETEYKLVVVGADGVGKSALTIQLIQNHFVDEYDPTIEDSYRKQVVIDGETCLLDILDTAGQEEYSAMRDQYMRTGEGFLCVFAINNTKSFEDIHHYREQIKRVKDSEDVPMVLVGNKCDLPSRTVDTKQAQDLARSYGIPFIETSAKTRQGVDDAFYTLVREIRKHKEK

As a reminder, the IC50 is the point on the concentration scale where inhibition reaches its midpoint. On to `Cc1cc2[nH]ncc2c(-c2nccc3c2sc2nc(OC[C@@]45CCCN4C[C@H](F)C5)nc(N4CCCC5(CC(=O)N5)C4)c23)c1C(F)(F)F` (stereo partly drawn) [Ex-195, 6-(2-(((2R,7aS)-2-fluoro-tetrahydro-1H-pyrrolizin-7a(5H)-yl)methoxy)-8-(6-methyl-5-(trifluorometh-yl)-1H-indazol-4-yl)pyrido [4′,3′:4,5]thieno[2,3-d]pyrimidin-4-yl)-1,6-diaza-spiro[3.5]nonan-2-one], for which the IC50 was 0.251 µM in assay [1] (setting [5]), 7.56 µM in assay [2] (setting [6]), 0.0767 µM in assay [3] (setting [7]) and 0.0779 µM in assay [4] (setting [8]).

As to `C[C@@]1(O)COCCN(c2nc(OC[C@]3(CN4CC5CC5C4)CC3(F)F)nc3sc4c(-c5c(C6(F)CC6)c(Cl)cc6[nH]ncc56)nccc4c23)C1` (stereo partly drawn) [Ex-237, (6S)-4-(2-(((1R)-1-((3-azabicyclo[3.1.0]hexan-3-yl)methyl)-2,2-difluorocyclopropyl)methoxy)-8-(6-chloro-5-(1-fluorocyclopropyl)-1H-indazol-4-yl)pyrido[4′,3′:4,5]thieno[2,3-d]pyrimidin-4-yl)-6-methyl-1,4-oxazepan-6-ol], the IC50 in assay [1] (setting [5]) is 0.158 µM; in assay [2] (setting [6]), 0.293 µM; in assay [3] (setting [7]) it was 0.0249 µM; in assay [4] (setting [8]), 0.0329 µM.

As to `Cc1cccc(-c2nccc3c2sc2nc(OC[C@@]45CCCN4C[C@H](F)C5)nc(N4CCOC[C@@](C)(O)C4)c23)c1C` [Ex-120, (S)-4-(8-(2,3-dimethylpheny1)-2-(((2R,7aS)-2-fluorotetrahydro-1H-pyrrolizin-7a(5H)-yl)methoxy)pyrido[4′,3′:4,5]thi-eno[2,3-d]pyrimidin-4-yl)-6-methyl-1,4-oxazepan-6-ol], the half-maximal inhibitory concentration (IC50) in assay [1] (setting [5]) came to 1.08 µM; in assay [2] (ASPC1, 2 h, KRAS-G12D, 2 hours), 2.03 µM; in assay [3] (setting [7]), 0.403 µM; in assay [4] (setting [8]) it was 0.269 µM.

Turning to `C=C1CN2C[C@@H](OC)C[C@@]2(COc2nc(N3CCOC[C@@](C)(O)C3)c3c(n2)sc2c(-c4c(C5CC5)c(Cl)cc5[nH]ncc45)nccc23)C1` [Ex-227, (6S)-4-(8-(6-chloro-5-cyclopropyl-1H-indazol-4-yl)-2-(((25,7aR)-2-meth-oxy-6-methylene-tetrahydro-1H-pyrrolizin-7a(5H)-yl)methoxy)pyrido [4′,3′:4,5]thieno[2,3-d]pyrimidin-4-yl)-6-methyl-1,4-oxaze-pan-6-ol], the half-inhibitory concentration (IC50) in assay [1] (setting [5]) turned out to be 0.0185 µM; in assay [2] (setting [6]), 0.175 µM; in assay [3] (setting [7]), 0.00656 µM; in assay [4] (setting [8]), 0.0219 µM.

On to `Cc1cc2[nH]ncc2c(-c2nccc3c2C2(CC2)c2nc(OC[C@@]45CCCN4C[C@H](F)C5)nc(N4CCOC[C@@](C)(O)C4)c2-3)c1C(F)(F)F` (single isomer, unassigned) [Ex-307], for which the IC50 was determined as 0.0224 µM in assay [1] (setting [5]); 0.258 µM in assay [2] (ASPC1, 2 h, KRAS-G12D, 2 hours); 0.00896 µM in assay [3] (setting [7]); 0.0247 µM in assay [4] (setting [8]).

As to `C[C@@]1(O)COCCN(c2nc(OC[C@]3(CN4C[C@H]5CCO[C@H]5C4)CC3(F)F)nc3sc4c(-c5c(C6(F)CC6)c(Cl)cc6[nH]ncc56)nccc4c23)C1` [Ex-254, (6S)-4-(8-(6-chloro-5-(1-fluorocyclopropyl)-1H-indazol-4-yl)-2-(((R)-2,2-difluoro-1-(((3aR,6aR)-hexahydro-5H-furo[2,3-c]pyrrol-5-yl)methyl)cyclopropyl)metho-xy)pyrido[4′,3′:4,5]thieno[2,3-d]pyrimidin-4-yl)-6-methyl-1,4-oxazepan-6-ol], the IC50 came out at 0.0597 µM in assay [1] (setting [5]), 0.315 µM in assay [2] (setting [6]), 0.00696 µM in assay [3] (setting [7]) and 0.0919 µM in assay [4] (setting [8]).

As for `C[C@@]1(O)COCCN(c2nc(OC[C@]3(CN4[C@@H]5CC[C@H]4C[C@@H](F)C5)CC3(F)F)nc3sc4c(-c5c(C6(F)CC6)c(Cl)cc6[nH]ncc56)nccc4c23)C1` [Ex-242, (6S)-4-(8-(6-chloro-5-(1-fluorocyclopropyl)-1H-indazol-4-yl)-2-(((R)-2,2-difluoro-1-(((1R,3R,5S)-3-fluoro-8-azabicyclo[3.2.1]octan-8-yl)methyl)cyclopropyl)metho-xy)pyrido[4′,3′:4,5]thieno[2,3-d]pyrimidin-4-yl)-6-methyl-1,4-oxazepan-6-ol], the IC50 in assay [1] (setting [5]) was determined as 0.694 µM; in assay [2] (setting [6]), 1.15 µM; in assay [3] (setting [7]) it was 0.0907 µM; in assay [4] (setting [8]), 0.348 µM.

As to `C[C@@]1(O)COCCN(c2nc(OC[C@@]34CCCN3C[C@H](F)C4)nc3sc4c(-c5c6cc(F)ccc6cc6[nH]ncc56)nccc4c23)C1` [Ex-172, (6S)-4-(8-(6-fluoro-1H-benzo[f]indazol-4-yl)-2-(((2R,7aS)-2-fluorotetrahydro-1H-pyrrolizin-7a(5H)-yl)-methoxy)pyrido[4′,3′: 4,5]thieno[2,3-d]pyr-imidin-4-yl)-6-methyl-1,4-oxazepam-6-ol], the IC50 in assay [1] (KRAS WT GNE IC50, nucleotide exchange) stood at 0.0724 µM; in assay [2] (ASPC1, 2 hours compound incubation), 0.252 µM; in assay [3] (KRAS G12D GNE IC50, nucleotide exchange), 0.0341 µM; in assay [4] (KRAS G12V GNE IC50, nucleotide exchange), 0.0492 µM.

Regarding `C[C@@H]1CN(C[C@@]2(COc3nc(N4CCOC[C@@](C)(O)C4)c4c(n3)sc3c(-c5c(C6(F)CC6)c(Cl)cc6[nH]ncc56)nccc34)CC2(F)F)C[C@H](C)O1` [Ex-246, (6S)-4-(8-(6-chloro-5-(1-fluorocyclopropyl)-1H-indazol-4-yl)-2-(((R)-1-(((2R,6S)-2,6-dimethylmorpholino)methyl)-2,2-difluorocyclopropyl)methoxy)pyrido[4′,3′:4,5]thieno[2,3-d]pyrimidin-4-yl)-6-methyl-1,4-oxazepan-6-ol], the IC50 in assay [1] (setting [5]) was 0.374 µM; in assay [2] (setting [6]), 1.17 µM; in assay [3] (setting [7]), 0.0968 µM; in assay [4] (setting [8]), 0.275 µM.

As for `Cc1cc2[nH]ncc2c(-c2nccc3c2sc2nc(O[C@@H](C)[C@@H]4CCCN4C)nc(N4CCOC[C@@](C)(O)C4)c23)c1C(F)(F)F` [Ex-204, (6S)-6-methyl-4-(8-(6-methyl-5-(trifluoromethyl)-1H-indazol-4-yl)-2-((S)-1-((S)-1-methylpyrrolidin-2-yl)ethoxy)pyrido[4′,3′:4,5]thieno[2,3-d]pyrimidin-4-yl)-1,4-oxazepan-6-ol], the IC50 was determined as 0.936 µM in assay [1] (setting [5]), 2.31 µM in assay [2] (setting [6]), 0.339 µM in assay [3] (setting [7]) and 0.239 µM in assay [4] (setting [8]).

For the molecule `Cc1cc2[nH]ncc2c(-c2nccc3c2sc2nc(OC[C@@]45CCCN4C[C@H](F)C5)nc(N4CCC[C@]5(CCO5)C4)c23)c1C(F)(F)F` [Ex-200], the 50% inhibitory concentration (IC50) came out at 0.474 µM in assay [1] (setting [5]), 0.613 µM in assay [2] (setting [6]), 0.141 µM in assay [3] (setting [7]) and 0.0929 µM in assay [4] (setting [8]).

For the molecule `CN1CCc2cc3[nH]ncc3c(-c3nccc4c3sc3nc(OC[C@@]56CCCN5C[C@H](F)C6)nc(N5CCOC[C@@](C)(O)C5)c34)c21` [Ex-125, (6S)-4-(2-(((2R,7aS)-2-fluorotetrahydro-1H-pyrrolizin-7a(5H)-yl)methoxy)-8-(5-methyl-1,5,6,7-tetrahydropyrrolo[2,3-f]indazol-4-yl)pyrido[4′,3′:4,5]thieno[2,3-d]pyrimidin-4-yl)-6-methyl-1,4-oxazepan-6-ol], the IC50 is 0.161 µM in assay [1] (setting [5]); 1.03 µM in assay [2] (ASPC1, 2 h, KRAS-G12D, 2 hours); 0.066 µM in assay [3] (setting [7]); 0.094 µM in assay [4] (setting [8]).

As to `C[C@@H]1CCN1C[C@@]1(COc2nc(N3CCOC[C@@](C)(O)C3)c3c(n2)sc2c(-c4c(C5(F)CC5)c(Cl)cc5[nH]ncc45)nccc23)CC1(F)F` [Ex-261, (6S)-4-(8-(6-chloro-5-(1-fluorocyclopropyl)-1H-indazol-4-yl)-2-(((R)-2,2-difluoro-1-(((R)-2-methylazetidin-1-yl)methyl)cyclopropyl)metho-xy)pyrido[4′,3′:4,5]thieno[2,3-d]pyrimidin-4-yl)-6-methyl-1,4-oxazepan-6-ol], the half-maximal inhibitory concentration (IC50) in assay [1] (setting [5]) is 0.0816 µM; in assay [2] (setting [6]) it was 0.369 µM; in assay [3] (setting [7]) it was 0.017 µM; in assay [4] (setting [8]), 0.0583 µM.

As to `C[C@@]1(O)COCCN(c2nc(OC[C@@]34CCCN3C[C@H](F)C4)nc3sc4c(-c5c(C(F)F)c(C(F)(F)F)cc6[nH]ncc56)nccc4c23)C1` [Ex-61, (6S)-4-(8-(5-(difluoromethyl)-6-(trifluoromethyl)-1H-indazol-4-yl)-2-(((2R,7aS)-2-fluorotetrahydro-1H-pyrrolizin-7a(5H)-yl)methoxy)pyrido[4′,3′:4,5]thi-eno[2,3-d]pyrimidin-4-yl)-6-methyl-1,4-oxazepan-6-ol], the half-maximal inhibitory concentration (IC50) in assay [1] (setting [5]) stood at 0.231 µM; in assay [2] (ASPC1, 2 h, KRAS-G12D, 2 hours), 1.28 µM; in assay [3] (setting [7]), 0.127 µM; in assay [4] (setting [8]), 0.236 µM.

For the molecule `C[C@@H]1CN(C[C@@]2(COc3nc(N4CCOC[C@@](C)(O)C4)c4c(n3)sc3c(-c5c(C6(F)CC6)c(Cl)cc6[nH]ncc56)nccc34)CC2(F)F)CCO1` [Ex-243], the half-maximal inhibitory concentration (IC50) in assay [1] (setting [5]) stood at 0.986 µM; in assay [2] (setting [6]), 0.943 µM; in assay [3] (setting [7]), 0.0873 µM; in assay [4] (setting [8]), 0.333 µM.
